Numbered stars: 1 amine (or outer) side, 2 acyl side, 3 side chain; on linkers, the order of the positions; unused ones are H or OH. Bridge positions count the residues as written; N and C are the ends. Ends that are not written are not given here. acetyl = K(acetyl): lysine side chain modified with a haloacetyl group whose halogen is replaced by the thiol of another residue, giving a thioether ring, O=C(C[*:1])[*:2]; COCH2 = acetyl group that carries the bridge

The subject of this assay is Recombinant Human FGFR1 alpha (IIIc) Fc Chimera Protein. Put plainly: Binding affinity of enzymatically synthesized cyclic peptide to FGFR by ELISA. As to conditions: luminescence signal at reaction concentration 10 nmol/L, SEQ ID NO: 39 standardized to 1, enzyme synthesis product. On the procedure:
The binding affinity of the cyclic peptide to FGFR was evaluated using an ELISA method.
The binding affinity of the enzymatically synthesized cyclic peptide to FGFR was measured by evaluating the amount of the cyclic peptide bound to FGFR by ELISA.
First, 5 ng of Recombinant Human FGFR1 alpha (IIIc) Fc Chimera Protein CF (R&D systems, 658-FR-050) was immobilized in each well of a 96-well plate, and blocked with Pierce Protein-Free (PBS) Blocking Buffer (Thermo, 37572), and a cyclic peptide diluted with Can Get Signal Immunoreaction Enhancer Solution I (TOYOBO, NKB-101) was then added and reacted at room temperature for 3 hours. After washing with 0.05% Tween 20-containing phosphate buffered saline (PBS), an anti-Myc antibody (Cell Signaling, 14038S) diluted with Can Get Signal Immunoreaction Enhancer Solution II (TOYOBO, NKB-101) was added and reacted at room temperature for 2 hours. After washing with 0.05% Tween 20-containing PBS, SuperSignal ELISA Femto Substrate (Thermo, 37075) was added, and the luminescence amount was measured. The dose-response relationship was calculated from using the difference between the luminescence amount in the well in which FGFR was immobilized and the luminescence amount in the well in which FGFR was not immobilized, and the concentration of the cyclic peptide at the time of reaction, and the binding affinity to FGFR was evaluated according to the following evaluation criteria. The evaluation result preferably satisfies the evaluation criteria A, B, or C.
In a case where a value of a luminescence signal emitted by the cyclic peptide set forth in SEQ ID NO: 39 at a reaction concentration of 10 nmol/L is standardized to 1, evaluation criteria of the luminescence signal value emitted by the cyclic peptide at a reaction concentration of 10 nmol/L is as follows. • A: 0.7 or more • B: 0.5 or more and less than 0.7 • C: 0.1 or more and less than 0.5 • D: less than 0.1.
On the technique in general: In an ELISA, binding on a coated surface is turned into a signal by an enzyme label.
Turning to “172 (HCSYERLQFSGHEAPFRVK(COCH2)V; thioether 2-19 (inferred)) [compound 172]”, the “Evaluation result of binding affinity to FGFR” value (“Evaluation result” for short) is “B (0.5 or more and less than 0.7)”.
The result for “364 (WCQLRFQGHLAPFIIK(COCH2)S; thioether 2-16) [compound 364]” reads “C (0.1 or more and less than 0.5)”; that for “222 (HCSYERLQFHGHEAPFRVK(COCH2)R; thioether 2-19 (inferred)) [compound 222]”, “A (0.7 or more)”.
For the substance “48 (HCKVQQLWLQGHYAPYWVK(COCH2)S; thioether 2-19 (inferred)) [compound 48]”, the “Evaluation result” value is “C (0.1 or more and less than 0.5)”.
With “234 (HK(COCH2)TWERLRFLGHIAPFWVCR; thioether 2-19 (inferred)) [compound 234]”, the “Evaluation result” value is reported as “A (0.7 or more)”.
For the substance “297 (HCSMERLQFHGHEAPFRVK(COCH2)V; thioether 2-19 (inferred)) [compound 297]”, the “Evaluation result” value was “C (0.1 or more and less than 0.5)”.
As to “310 (YCTWERLIFLGHIAPFWVK(COCH2)R; thioether 2-19 (inferred)) [compound 310]”, the “Evaluation result” value was “C (0.1 or more and less than 0.5)”.
The result for “244 (NCWGWAYPIPFRK(COCH2)V; thioether 2-13 (inferred)) [compound 244]” reads “C (0.1 or more and less than 0.5)”.
The result for “334 (HCSYERLIFLGHIAPFWVK(COCH2)V; thioether 2-19 (inferred)) [compound 334]” reads “B (0.5 or more and less than 0.7)”; that for “368 (ECKVHLHPWGAPFWIK(COCH2)S; thioether 2-16) [compound 368]”, “C (0.1 or more and less than 0.5)”.
“201 (HCSYERLQFHGHEAPFHVK(COCH2)V; thioether 2-19 via Ac; not fully specified) [compound 201]”: the “Evaluation result” value is on record as “A (0.7 or more)”.
The result for “164 (HCSYERLQFLGHEAPFRVK(COCH2)V; thioether 2-19 (inferred)) [compound 164]” reads “A (0.7 or more)”; that for “366 (HCQFNIHPWGAPFLVK(COCH2)E; thioether 2-16) [compound 366]”, “C (0.1 or more and less than 0.5)”; that for “143 (HCSYERYQFHGHEAPFRVK(COCH2)V; thioether 2-19 (inferred)) [compound 143]”, “B (0.5 or more and less than 0.7)”.
The result for “153 (HCSYERLSFHGHEAPFRVK(COCH2)V; thioether 2-19 (inferred)) [compound 153]” reads “A (0.7 or more)”.
The result for “193 (HCSYERLQFHGHEAPFVVK(COCH2)V; thioether 2-19 via Ac) [compound 193]” reads “A (0.7 or more)”; that for “119 (HCSYERLQFHGHEAPYRVK(COCH2)V; thioether 2-19 (inferred)) [compound 119]”, “C (0.1 or more and less than 0.5)”; that for “349 (HCLEQLVYGGDTAPFWIVVFK(COCH2)D; thioether 2-21) [compound 349]”, “C (0.1 or more and less than 0.5)”.
On to “181 (HCSYERLQFHGHFAPFRVK(COCH2)V; thioether 2-19 via Ac) [compound 181]”, for which the “Evaluation result” value is recorded as “A (0.7 or more)”.
The entry for “325 (HCTWERLIFLGHIAPFWVK(COCH2)S; thioether 2-19 (inferred)) [compound 325]” is “B (0.5 or more and less than 0.7)”; for “67 (GCSYERLQFHGHEAPFRVK(COCH2)V; thioether 2-19 (inferred)) [compound 67]” it is “A (0.7 or more)”.
The entry for “189 (HCSYERLQFHGHRAPFRVK(COCH2)V; thioether 2-19 via Ac) [compound 189]” is “A (0.7 or more)”.
For “332 (HCTYERLIFHGHIAPFWVK(COCH2)V; thioether 2-19 (inferred)) [compound 332]”, the “Evaluation result” value is reported as “A (0.7 or more)”.
The result for “291 (HCSYERLQFHGHEAKFRVK(COCH2)V; thioether 2-19 (inferred)) [compound 291]” reads “C (0.1 or more and less than 0.5)”; that for “157 (HCSYERLHFHGHEAPFRVK(COCH2)V; thioether 2-19 (inferred)) [compound 157]”, “A (0.7 or more)”.
The result for “133 (HCSYRRLQFHGHEAPFRVK(COCH2)V; thioether 2-19 (inferred)) [compound 133]” reads “B (0.5 or more and less than 0.7)”; that for “136 (HCSYELLQFHGHEAPFRVK(COCH2)V; thioether 2-19 (inferred)) [compound 136]”, “C (0.1 or more and less than 0.5)”.
The entry for “161 (HCSYERLQYHGHEAPFRVK(COCH2)V; thioether 2-19 (inferred)) [compound 161]” is “C (0.1 or more and less than 0.5)”.
Regarding “205 (HCSYERLQFHGHEAPFRYK(COCH2)V; thioether 2-19 via Ac; not fully specified) [compound 205]”, the “Evaluation result” value is “B (0.5 or more and less than 0.7)”.
The entry for “192 (HCSYERLQFHGHEAPFIVK(COCH2)V; thioether 2-19 via Ac) [compound 192]” is “A (0.7 or more)”; for “71 (VCSYERLQFHGHEAPFRVK(COCH2)V; thioether 2-19 (inferred)) [compound 71]” it is “A (0.7 or more)”; for “242 (HK(COCH2)TWERLIFLGHIAPFWVCS; thioether 2-19 (inferred)) [compound 242]” it is “A (0.7 or more)”.
The result for “211 (HCSYERLQFHGHEAPFRVK(COCH2)L; thioether 2-19 via Ac; not fully specified) [compound 211]” reads “A (0.7 or more)”; that for “79 (DCSYERLQFHGHEAPFRVKV; not fully specified; Description of Artificial Sequence: Cyclic peptide) [compound 79]”, “A (0.7 or more)”; that for “61 (HCSYERLQFAGHEAPFRVK(COCH2)V; thioether 2-19 (inferred)) [compound 61]”, “A (0.7 or more)”.
The result for “102 (HCSSERLQFHGHEAPFRVK(COCH2)V; thioether 2-19 (inferred)) [compound 102]” reads “C (0.1 or more and less than 0.5)”; that for “38 (WCQLVWQGHKAPYLTLK(COCH2)L; thioether 2-17) [compound 38]”, “B (0.5 or more and less than 0.7)”.
For the substance “345 (QCYLPFWFYQKARLLFHYIK(COCH2)S; thioether 2-20) [compound 345]”, the “Evaluation result” value was “C (0.1 or more and less than 0.5)”.
The entry for “108 (HCSYERLQFHQHEAPFRVK(COCH2)V; thioether 2-19 (inferred)) [compound 108]” is “C (0.1 or more and less than 0.5)”; for “124 (HCSYVRLQFHGHEAPFRVK(COCH2)V; thioether 2-19 (inferred)) [compound 124]” it is “B (0.5 or more and less than 0.7)”; for “296 (HCMYERLQFHGHEAPFRVK(COCH2)V; thioether 2-19 (inferred)) [compound 296]” it is “A (0.7 or more)”.
The result for “92 (HCTYERLQFHGHEAPFRVK(COCH2)V; thioether 2-19 via acetyl; not fully specified; printed as H-(C)-TYERLQFHGHEAPFRV-(K(acetyl))-V) [compound 92]” reads “A (0.7 or more)”.
On to “65 (HCSYERLQFHGHEAPFRAK(COCH2)V; thioether 2-19 (inferred)) [compound 65]”, for which the “Evaluation result” value is given as “A (0.7 or more)”.
The entry for “178 (HCSYERLQFHGHLAPFRVK(COCH2)V; thioether 2-19 (inferred)) [compound 178]” is “A (0.7 or more)”.
The result for “115 (HCSYERLQFHGHEANFRVK(COCH2)V; thioether 2-19 (inferred)) [compound 115]” reads “B (0.5 or more and less than 0.7)”.
The entry for “245 (WCQYVYLSHVAPFLVRK(COCH2)E; thioether 2-17 (inferred)) [compound 245]” is “C (0.1 or more and less than 0.5)”; for “74 (WCSYERLQFHGHEAPFRVK(COCH2)V; thioether 2-19 (inferred)) [compound 74]” it is “A (0.7 or more)”.
